# Patent publication US8329675B2, “Inhibitors of fatty acid amide hydrolase” (Infinity Pharmaceuticals, Inc., priority 2006, dated 2012)
# pKi: −log10 of the molar value.
# Biological target: T1, human FAAH (Homo sapiens, UniProt O00519)
# T1 construct: host or cells: COS-7 cells, transient transfection; 13,000 g membrane fraction solubilised in 1% Triton X-100
# T1 sequence (O00519 1-579): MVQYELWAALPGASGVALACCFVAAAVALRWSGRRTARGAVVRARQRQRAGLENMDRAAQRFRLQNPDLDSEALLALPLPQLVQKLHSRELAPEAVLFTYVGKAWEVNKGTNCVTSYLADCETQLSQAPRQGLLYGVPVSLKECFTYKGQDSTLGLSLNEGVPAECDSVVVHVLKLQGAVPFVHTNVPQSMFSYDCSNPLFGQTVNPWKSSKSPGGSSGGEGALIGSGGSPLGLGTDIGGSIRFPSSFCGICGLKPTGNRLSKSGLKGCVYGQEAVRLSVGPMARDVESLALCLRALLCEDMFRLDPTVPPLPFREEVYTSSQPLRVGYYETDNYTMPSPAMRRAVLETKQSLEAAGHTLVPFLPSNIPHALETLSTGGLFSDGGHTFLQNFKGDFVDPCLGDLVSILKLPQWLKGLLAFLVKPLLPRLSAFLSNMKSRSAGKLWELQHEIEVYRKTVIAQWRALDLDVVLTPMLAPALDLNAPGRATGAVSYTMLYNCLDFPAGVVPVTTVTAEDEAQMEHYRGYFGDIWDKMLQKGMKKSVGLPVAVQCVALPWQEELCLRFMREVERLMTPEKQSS
# Test: Human FAAH biochemical inhibition assay (AMC arachidonoyl amide fluorescence)
# Details: Table 2, human FAAH (no asterisk); read-out: Activity (Ki)
# How it was run: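 Solubilized membrane fraction from COS-7 cells transfected with human FAAH, used at a final 0.05 mg/ml in 50 mM Hepes pH 7.5, 1 mM EDTA, 0.2% Triton X-100. Inhibitor pre-incubated 30 min at room temperature; 20 uM final AMC arachidonoyl amide added, reaction run 4 h at room temperature, fluorescence read.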
row,pKi,Structure (SMILES)
1,> 8.00,OB(O)c1ccc(COCc2cccc3ccccc23)cc1 [II-111]
2,< 6.00,CN(Cc1ccc(B(O)O)c2ccccc12)c1ccccc1 [II-112]
3,7.00 to 8.00,OB(O)c1cccc(OCCc2ccccc2)c1 [II-113]
4,> 8.00,OB(O)c1cccc(Oc2ccccc2)c1 [II-114]
5,7.00 to 8.00,OB(O)c1cccc(OCCCc2ccccc2)c1 [II-115]
6,7.00 to 8.00,CCO/N=C(\c1ccccc1)c1ccc(B(O)O)cc1 [II-116]
7,7.00 to 8.00,OB(O)c1ccc(CCOc2ccccc2)cc1 [II-117]
8,< 6.00,OB(O)c1ccc(CNc2cccc3ccccc23)cc1 [II-118]
9,> 8.00,OB(O)c1ccc(COc2cccc3ccccc23)cc1 [II-119]
10,7.00 to 8.00,OB(O)c1ccc(OCCCOc2ccccn2)cc1 [II-120]
11,7.00 to 8.00,OB(O)c1cccc(CCOc2ccccc2)c1 [II-121]
12,7.00 to 8.00,O=c1ccccn1CCCOc1ccc(B(O)O)cc1 [II-122]
13,7.00 to 8.00,OB(O)c1ccc(COC2CCCc3ccccc32)cc1 (centres unmarked) [II-123]
14,> 8.00,OB(O)c1ccc(COC2CCc3ccccc32)cc1 (centres unmarked) [II-124]
15,< 6.00,Cn1ccc2cc(B(O)O)ccc21 [II-125]
16,> 8.00,CC(OCc1ccc(B(O)O)cc1)c1ccccc1 (centres unmarked) [II-126]
17,> 8.00,OB(O)c1ccc(COC2CCCCC2)cc1 [II-127]
18,> 8.00,OB(O)c1ccc(OCCCOc2ccccc2)cc1 [II-128]
19,> 8.00,OB(O)c1ccc(OCCOc2ccccc2)cc1 [II-129]
20,> 8.00,C/C(=N\OCc1ccccc1)c1ccc(B(O)O)cc1 [II-130]
21,> 8.00,CN(Cc1ccccc1)Cc1ccc(B(O)O)cc1 [II-131]
22,> 8.00,OB(O)c1ccc(COCc2ccccc2)cc1 [II-132]
23,> 8.00,CC(C)(C)OC(=O)n1cncc1COc1ccc(B2OC(C)(C)C(C)(C)O2)c(F)c1 [II-133]
24,7.00 to 8.00,OB(O)c1ccc(OCc2ccn[nH]2)cc1F [II-134]
25,7.00 to 8.00,OB(O)c1ccc(OCc2cnco2)cc1F [II-135]
26,> 8.00,CC(Cc1ccccc1)Oc1ccc(B(O)O)c(F)c1 (centres unmarked) [II-136]

row,pKi,Structure (SMILES)
1,> 8.00,C[C@H](COc1ccc(B(O)O)c(F)c1)c1ccccc1 [II-137]
2,> 8.00,OB(O)c1ccc(OC2Cc3ccccc3C2)cc1F [II-138]
3,> 8.00,C[C@@H](COc1ccc(B(O)O)c(F)c1)c1ccccc1 [II-139]
4,> 8.00,O=C(COc1ccc(B(O)O)c(F)c1)c1ccccc1 [II-140]
5,> 8.00,CN(Cc1ccc(B(O)O)cc1)c1ccccc1 [II-141]
6,> 8.00,OB(O)c1ccc(CN2CCc3ccccc32)cc1 [II-142]
7,> 8.00,OB(O)c1ccc(CN2CCCc3ccccc32)cc1 [II-143]
8,7.00 to 8.00,O=C1c2ccc(B(O)O)cc2C(=O)N1c1ccccc1 [II-144]
9,> 8.00,OB(O)c1ccc(Cn2ccc3ccccc32)cc1 [II-145]
10,> 8.00,Cc1cc(COc2ccc(B(O)O)c(F)c2)ccc1F [II-146]
11,7.00 to 8.00,CC1(C)OB(c2ccc(OCc3ccn[nH]3)cc2F)OC1(C)C [II-147]
12,7.00 to 8.00,CC1(C)OB(c2ccc(OCc3cnco3)cc2F)OC1(C)C [II-148]
13,> 8.00,OB(O)c1ccc(Oc2cccnc2)cc1F [II-149]
14,> 8.00,CC1(C)OB(c2ccc(Oc3cccnc3)cc2F)OC1(C)C [II-150]
15,6.00 to 8.00,O=C(OCc1ccccc1)c1cc(Oc2cccc(F)c2)ccc1B(O)O [II-151]
16,> 8.00,OB(O)c1ccc(CNc2ccccc2)cc1 [II-152]
17,> 8.00,CC1(C)OB(c2ccc(Cn3ccc4ccccc43)cc2)OC1(C)C [II-153]
18,> 8.00,CC1(C)OB(c2ccc(CNc3ccccc3)cc2)OC1(C)C [II-154]
19,7.00 to 8.00,O=C(c1ccc(B(O)O)cc1)N(Cc1ccccc1)c1ccccc1 [II-155]
20,> 8.00,OB(O)c1ccc(OCCCc2ccccc2)cc1F [II-156]
21,6.00 to 8.00,OB(O)c1ccc(CN(Cc2ccccc2)Cc2ccccc2)cc1 [II-157]
22,< 6.00,OB(O)c1ccc(CN(c2ccccc2)c2ccccc2)cc1 [II-158]
23,7.00 to 8.00,OB(O)c1ccc(OCc2cncs2)cc1F [II-159]
24,7.00 to 8.00,OB(O)c1ccc(OCc2cccnc2)cc1F [II-160]
25,7.00 to 8.00,CC1(C)OB(c2ccc(OCc3cccnc3)cc2F)OC1(C)C [II-161]
26,< 6.00,Nc1cc(Oc2cccc(F)c2)ccc1B(O)O [II-162]

row,pKi,Structure (SMILES)
1,7.00 to 8.00,CN(Cc1ccccc1)C(=O)c1ccc(B(O)O)cc1 [II-163]
2,7.00 to 8.00,O=C(c1ccc(B(O)O)cc1)N1CCCCC1 [II-164]
3,7.00 to 8.00,OB(O)c1ccc(OCCCCc2ccccc2)cc1 [II-165]
4,7.00 to 8.00,CC1(C)OB(c2ccc(OCCCCc3ccccc3)cc2)OC1(C)C [II-166]
5,> 8.00,OB(O)c1ccc(OCCc2ccccc2)cc1 [II-167]
6,7.00 to 8.00,CC1(C)OB(c2ccc(OCCc3ccccc3)cc2)OC1(C)C [II-168]
7,> 8.00,OB(O)c1ccc(OCCCc2ccccc2)cc1 [II-169]
8,7.00 to 8.00,CC1(C)OB(c2ccc(OCCCc3ccccc3)cc2)OC1(C)C [II-170]
9,7.00 to 8.00,C[C@@H](NC(=O)c1ccc(B(O)O)cc1)c1ccccc1 [II-171]
10,7.00 to 8.00,C[C@H](NC(=O)c1ccc(B(O)O)cc1)c1ccccc1 [II-172]
11,< 6.00,CN(C)c1cc(Oc2ccc(B(O)O)cc2)cc(Oc2cccc3ccccc23)c1 [II-173]
12,> 8.00,CC1(C)OB(c2ccc(OCc3cncs3)cc2F)OC1(C)C [II-174]
13,< 6.00,OB(O)c1ccc(OCc2ccccn2)cc1F [II-175]
14,> 8.00,CC1(C)OB(c2ccc(OCc3ccccn3)cc2F)OC1(C)C [II-176]
15,7.00 to 8.00,OB(O)c1ccc(OCc2ccncc2)cc1F [II-177]
16,< 6.00,CC1(C)OB(c2ccc(CN(Cc3ccccc3)Cc3ccccc3)cc2)OC1(C)C [II-178]
17,7.00 to 8.00,CC1(C)OB(c2ccc(OCc3ccncc3)cc2F)OC1(C)C [II-179]
18,< 6.00,CN(C)c1cc(Oc2ccc(B(O)O)cc2)cc(Oc2cccc(F)c2)c1 [II-180]
19,6.00 to 8.00,CN(C)c1cc(Oc2ccc(Cl)cc2)cc(Oc2ccc(B(O)O)cc2)c1 [II-181]
20,7.00 to 8.00,CN(C)c1ccc(/N=N/c2ccc(B(O)O)cc2)cc1 [II-182]
21,7.00 to 8.00,COC(=O)c1cc(Oc2cccc(F)c2)ccc1B(O)O [II-183]
22,7.00 to 8.00,c1ccc(-c2ccc(B3CCCO3)cc2)cc1 [II-184]
23,6.00 to 8.00,CN(C)c1ccc(/N=N/c2ccc(B3OC(C)(C)C(C)(C)O3)cc2)cc1 [II-185]
24,< 6.00,c1ccc(B2CCCO2)cc1 [II-186]
25,7.00 to 8.00,Cc1cc(NCc2ccc(B3OC(C)(C)C(C)(C)O3)cc2)ccc1F [II-187]
26,< 6.00,Cc1cc(CNc2ccc(B3OC(C)(C)C(C)(C)O3)cc2)ccc1F [II-188]

row,pKi,Structure (SMILES)
1,< 6.00,OB(O)c1ccc(/C=C\c2ccccc2)cc1 [II-189]
2,7.00 to 8.00,OB(O)c1ccc(Oc2cccc(Oc3cccc4ccccc34)c2)cc1 [II-190]
3,> 8.00,OB(O)c1ccc(Oc2cccc(Oc3ccc(Cl)cc3)c2)cc1 [II-191]
4,7.00 to 8.00,COc1ccc(Oc2cc(Oc3ccc(B(O)O)cc3)cc(N(C)C)c2)cc1 [II-192]
5,> 8.00,COc1ccc(Oc2cccc(Oc3ccc(B(O)O)cc3)c2)cc1 [II-193]
6,> 8.00,OB(O)c1ccc(Oc2cccc(F)c2)c(F)c1F [II-194]
7,> 8.00,OB(O)c1c(F)cc(Oc2cccc(F)c2)cc1F [II-195]
8,< 6.00,OB(O)c1ccc(Oc2cccc(N3CCCCC3)c2)cc1F [II-196]
9,7.00 to 8.00,OB(O)c1ccc(Oc2cccc(N3CCCC3)c2)cc1F [II-197]
10,> 8.00,OB(O)c1cc(F)c(Oc2cccc(F)c2)c(F)c1 [II-198]
11,> 8.00,Cc1cc(CSc2ccc(B(O)O)c(F)c2)ccc1F [II-199]
12,> 8.00,CNc1cccc(Oc2ccc(B(O)O)c(F)c2)c1 [II-200]
13,7.00 to 8.00,CN(C)c1cccc(Oc2ccc(B(O)O)c(F)c2)c1 [II-201]
14,7.00 to 8.00,OB(O)c1ccc(Oc2cccc(F)c2)cc1C(F)(F)F [II-202]
15,> 8.00,N#Cc1cc(Oc2cccc(F)c2)ccc1B(O)O [II-203]
16,> 8.00,COc1cc(Oc2cccc(F)c2)ccc1B(O)O [II-204]
17,> 8.00,CN(C)c1cccc(Oc2ccc(B(O)O)cc2F)c1 [II-205]
18,> 8.00,COc1cccc(Oc2ccc(B(O)O)c(F)c2)c1 [II-206]
19,> 8.00,OB(O)c1ccc(Oc2cccc(F)c2)cc1Cl [II-207]
20,7.00 to 8.00,Cc1cc(-c2cccc(F)c2)ccc1B(O)O [II-208]
21,7.00 to 8.00,Cc1cc(Oc2cccc(F)c2)ccc1B(O)O [II-209]
22,> 8.00,OB(O)c1ccc(Oc2ccc(F)c(F)c2)cc1F [II-210]
23,> 8.00,Cc1ccc(Oc2ccc(B(O)O)c(F)c2)cc1Cl [II-211]
24,> 8.00,OB(O)c1ccc(Oc2cccc(OC(F)(F)F)c2)cc1F [II-212]
25,> 8.00,Cc1cc(Oc2ccc(B(O)O)c(F)c2)ccc1Cl [II-213]
26,< 6.00,CN(C)CCN(Cc1ccccc1)C(=O)C(Oc1ccc(B(O)O)cc1)c1ccccc1 (centres unmarked) [II-214]
